{"source": "patent US20220125837A1", "about": "“METHODS FOR CONTROLLED ELIMINATION OF THERAPEUTIC CELLS” (Bellicum Pharmaceuticals, Inc., priority 2014, published 2022)", "key": {"[1]": {"molecular_target": "FRB-KTF (Homo sapiens, UniProt P42345+P62942, W2101F)", "sequence (P42345 2012-2144 W2101F)": "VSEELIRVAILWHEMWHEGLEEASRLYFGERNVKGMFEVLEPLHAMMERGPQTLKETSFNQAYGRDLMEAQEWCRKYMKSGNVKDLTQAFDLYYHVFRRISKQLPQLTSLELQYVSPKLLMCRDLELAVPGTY", "sequence (P62942 2-108)": "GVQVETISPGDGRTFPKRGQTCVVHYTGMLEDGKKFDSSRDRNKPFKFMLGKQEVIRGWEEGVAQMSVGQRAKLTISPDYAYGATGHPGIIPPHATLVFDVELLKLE", "settings": "cited from earlier work"}, "[2]": {"molecular_target": "FRB-PLF (Homo sapiens, UniProt P42345+P62942, K2095P/T2098L/W2101F)", "sequence (P42345 2012-2144 K2095P/T2098L/W2101F)": "as the sequence (P42345 2012-2144 W2101F) above, with K84P, T87L counted along it", "sequence (P62942 2-108)": "as the sequence (P62942 2-108) above", "settings": "cited from earlier work"}, "[3]": {"molecular_target": "wt FRB (K2095 T2098 W2101) (Homo sapiens, UniProt P42345+P62942)", "sequence (P62942 2-108)": "as above", "sequence (P42345 2012-2144)": "as the sequence (P42345 2012-2144 W2101F) above, with F90W counted along it", "settings": "cited from earlier work"}, "[4]": {"settings": "cited from earlier work"}, "[5]": {"tested_on": "293 cells", "assay": "SRα-SEAP assay in 293 cells with FRBl2-tagged CAR and iCaspase-9: rapamycin or rimiducid", "assay_type": "cell-based, human", "settings": "overnight; at much lower levels of drug", "method": "Two tandem FRB, domains were fused to either either a 1st generation Her2-CAR or to a 1st generation CD19-CAR co-expressing inducibleiCaspase-9. 293 cells were transiently transfected with a constitutive reporter plasmid, SRα-SEAP, along with normalized levels of expression plasmids encoding Her2-CAR-FRBl2, iCaspase-9, Her2-CAR-FRBl2+iCasp9, iC9-CAR(19).FRBl2 (coexpressing both CD19-CAR-FRBl2 and iCaspase9), or control vector. […] After overnight incubation with drugs, SEAP activity was determined. […] This dose-dependent decrease required the presence of both the FRB-tagged CAR and the FKBP12-tagged Caspase-9. […] Moreover, on- or off-target-mediated CAR clustering should increase the sensitivity of killing primarily at the site of scFv engagement.\n24 hours following transfection (4.1), 293T cells are split to 96-well plates and incubated with dilutions of dimerizing drugs. Briefly, 100 μL media is added to each well of a 96-well flat-bottom plate. Drugs are diluted in tubes to a concentration 4× the top concentration in the gradient to be place on the plate. […]\n24 hours after drug stimulation, 96-well plates are wrapped to prevent evaporation and incubated at 65° C. for 2 hours to inactivate endogenous and serum phosphatases while the heat-stable SeAP reporter remains (3, 12, 14). […] Phosphatase activity is measured by fluorescence with excitation at 355 nm and emission at 460 nm. […]"}, "[6]": {"tested_on": "cells", "assay": "AP1903 needed in vitro for effective signaling of cells", "assay_type": "cell-based", "method": "This equates to 16-160 μg/L or ˜0.016-1.6 mg/kg (1.6-160 μg/kg)."}, "[7]": {"tested_on": "CD3+ΔCD19+ cells", "assay": "CASPALLO phase I clinical trial: AP1903 in patients with GvHD after iCasp9 T cells", "assay_type": "in vivo, human", "method": "Prior to administration, the calculated dose was diluted to 100 mL in 0.9% normal saline for infusion."}, "[8]": {"tested_on": "human CD3+CD19+ T cells", "assay": "AP1903 dose-dependent elimination in vivo of iCasp9-transduced T cells", "design": "species or system immune deficient mice (NSG)", "settings": "mouse", "method": "The Caspase-9 polypeptide has a dose-response curve in vivo, which could be used to eliminate a variable fraction of T cells expressing the Caspase-9 polypeptide.\nT cells were transduced with SFG-iCasp9-D330E-2A-ΔCD19 retrovirus and injected i.v. into immune deficient mice (NSG). […] After an additional 24 hours, mice were sacrificed and lymphocytes from the spleen (A) were isolated and analyzed by flow cytometry for the frequency of human CD3+CD19+ T cells."}}, "note": "Like-named read-outs stand apart in the source and are kept apart here.", "data": [{"molecule": "S-Butanesulfonamidorap", "values": [{"measurement": "EC50", "setting": "[1]", "result": "> 200", "unit": "nM"}]}, {"molecule": "CO[C@@H]1C[C@H](C[C@@H](C)[C@@H]2CC(=O)[C@H](C)/C=C(\\C)[C@@H](O)[C@@H](OC)C(=O)[C@H](C)C[C@H](C)/C=C/C=C/C=C(\\C)[C@H](OC(C)C)C[C@@H]3CC[C@@H](C)[C@@](O)(O3)C(=O)C(=O)N3CCCC[C@H]3C(=O)O2)CC[C@H]1O", "note": "[R-Isopropoxyrapamycin]", "values": [{"measurement": "EC50", "setting": "[2]", "result": "~8.5", "unit": "nM"}, {"measurement": "EC50", "setting": "[3]", "result": "~300", "unit": "nM"}]}, {"molecule": "CC[C@H](C(=O)N1CCCC[C@H]1C(=O)O[C@H](CCc1ccc(OC)c(OC)c1)c1cccc(OCC(=O)NCCNC(=O)COc2cccc([C@@H](CCc3ccc(OC)c(OC)c3)OC(=O)[C@@H]3CCCCN3C(=O)[C@@H](CC)c3cc(OC)c(OC)c(OC)c3)c2)c1)c1cc(OC)c(OC)c(OC)c1", "note": "(relative stereo) [AP1903, 2-Piperidinecarboxylic acid, 1-[(2S)-1-oxo-2-(3,4,5-trimethoxyphenyl)butyl]-, 1,2-ethanediylbis[imino(2-oxo-2,1-ethanediyl)oxy-3,1-phenylene[(1R)-3-(3,4-dimethoxyphenyl)propylidene]] ester, [2S-[1(R*),2R*[S*[S*[1(R*),2R*]]]]]-(9Cl)]", "values": [{"measurement": "plasma level as % of maximal concentration", "setting": "[4]; 2 hours post-dose", "result": "~7", "unit": "%"}, {"measurement": "plasma level as % of maximal concentration", "setting": "[4]; 10 hours post-dose", "result": "~1", "unit": "%"}, {"measurement": "well-tolerated doses", "setting": "[4]; Phase I study", "result": "up to 1 mg/kg"}, {"measurement": "SEAP activity, % of normal levels", "setting": "[5]", "result": "about 20%"}, {"measurement": "amount needed in vitro for effective signaling of cells", "setting": "[6]", "result": "10 to 100", "unit": "nM"}, {"measurement": "ablation of CD3+ΔCD19+ cells", "setting": "[7]; patients with grade I/II aGVHD, 0.4 mg/kg 2 h infusion, within 30 minutes of infusion", "result": "> 90", "unit": "%"}, {"measurement": "time to resolution of skin and liver aGvHD", "setting": "[7]; two patients", "result": "≤ 24", "unit": "h"}, {"measurement": "further change of CD3+ΔCD19+ cells", "setting": "[7]; within 24 hours", "result": "further log reduction"}, {"measurement": "dose sufficient to eliminate most modified T cells in vivo", "setting": "[8]", "result": 0.5, "unit": "mg/kg"}]}]}
